The source made the active and inactive calls. No cut-off for these calls is given here.

Data set [1] is described as follows: Cytotoxicity against rat RGM1 cells assessed as reduction in viability at 100 to 100 uM after 24 hrs by CCK-8 assay. Conditions: rgm1, 24 h, dose 100-100 µM. The format is toxicity, cell-based.
Data set [2] concerns RGK1. The data set can be described thus: Induction of mitochondrial membrane potential loss in rat RGK1 cells at 200 uM after 24 hrs by MitoTracker Red CMXRos fluorescence microscopic analysis. It counts as functional, cell-based.
Data set [3] deals with RGK1. The data set can be described thus: Antiproliferative activity against rat RGK1 cells assessed as reduction in viability at 100 to 100 uM after 24 hrs by CCK-8 assay. The format is functional, cell-based. Conditions: dose 100-100 µM.

For `CC1(C)O[C@H]2Cc3c(O)cc(O)cc3O[C@@H]2c2cc(O)c(O)cc21`, the Activity result in data set [1] is on record as “Toxic”. Further, the result with RGK1 [2] and in the data set on RGK1 [3] was Active.

The values above are taken from ChEMBL document CHEMBL5370633, “Anti-cancer Effect of a Planar Catechin Analog through the Decrease in Mitochondrial Membrane Potential” (ACS Med Chem Lett, 2023).
